Data: patent US20080153839A1, “USE OF ANISIC ACID FOR PROMOTING DESQUAMATION” (L'OREAL, priority 2006, published 2008)

Tested on: stratum corneum of normal human skin fragments kept in survival
Assay: Cohesion of the stratum corneum on skin kept in survival, histological slices stained with hemalun-eosin
Type: cell-based
Conditions: for % increase in desquamation relative to the control skin / Scores (histological evaluation of the cohesion of the horny layer, semi-quantitative scores): topical; for Scores (histological evaluation of the cohesion of the horny layer, semi-quantitative scores): average of 6 donors, score 0-4, the higher the score the lower the cohesion
Method: Fragments of normal human skin are obtained by plastic surgery from 6 different donors. They are placed in inserts, which are themselves positioned on culture wells containing culture medium specifically adapted for maintaining the skin fragments in survival (antibiotics, FCS). The anisic acid is applied topically according to the following protocol and in comparison with an untreated skin (control skin): • control skin • skin+[…] • skin+[…] The cohesion of the horny layer was evaluated using stained histological slices, according to the following semi-quantitative scores (evaluation on 10 to 15 fields at magnification 40): • score 0 absence of change of cohesion of the stratum corneum • score 1 slight reduction in cohesion of the stratum corneum • score 2 moderate reduction in cohesion of the stratum corneum • score 3 large reduction in cohesion of the stratum corneum • score 4 very large reduction in cohesion of the stratum corneum with exfoliation. An average is determined for each parameter from the results obtained on the 6 skin models. The statistical analysis is performed by means of the “reduced deviation” Student test or the paired samples test, with a risk of 5%.

[1] = 0.1% anisic acid, listed as anisic acid
[2] = 1% anisic acid, listed as anisic acid

In the case of `COc1ccc(C(=O)O)cc1` [Anisic acid, 4-methoxybenzoic acid], the “desquamating activity after topical application relative to the control skins” value (0.1% and 1%, histological reduction in the cohesion of the stratum corneum, no dose effect) is reported as “significant desquamating activity”, the “% increase in desquamation relative to the control skin” value (0.1% anisic acid) is reported as 95.9% and the “Scores (histological evaluation of the cohesion of the horny layer, semi-quantitative scores)” value (0.1% anisic acid) is reported as 1.43 ± 0.7. For the same compound, the “Scores (histological evaluation of the cohesion of the horny layer, semi-quantitative scores)” value [1] was 1.43, the “% increase in desquamation relative to the control skin” value [1] was 95.9% and the “% increase in desquamation relative to the control skin” value (1% anisic acid) was 115%. The “Scores (histological evaluation of the cohesion of the horny layer, semi-quantitative scores)” value (1% anisic acid) was 1.57 ± 0.4, the “Scores (histological evaluation of the cohesion of the horny layer, semi-quantitative scores)” value [2] was 1.57 and the “% increase in desquamation relative to the control skin” value [2] was 115%.
